The results in this text go back to US11591342B2, “Heterocyclic compound, application thereof and pharmaceutical composition comprising same” (SUZHOU SINOVENT PHARMACEUTICALS CO., LTD., priority 2018, dated 2023).

One data set has as its target Autotaxin (ATX) (Homo sapiens (Human), UniProt Q13822). Kind of data set: ATX bioactivity assay (Amplex Red / choline oxidase / HRP fluorescence, LPC 16:0 substrate). It counts as biochemical. The following applies: 30 min room temperature. On the procedure:
Effect Example 1 Bioactivity Assay
Preparation and Treatment
Stock Solution Preparation
A 10 mM DMSO stock solution was formulated for each compound. A 30 mM DMSO stock solution was formulated for positive control HA130.
The DMSO stock solutions were stored at room temperature in a desiccator for a short period of time or at −20° C. for a long period of time.
All compounds were serially 3-fold diluted in DMSO from 10 μM to the 10th concentration.
A 1000× positive control (10 mM, HA130) and a 1000× negative control (100% DMSO) were prepared.
The plates were shaken for 5 min.
Preparation of 1× Reaction Buffer:
5× reaction buffer and cold water were mixed well in a volume ratio of 1:4.
Preparation of 20 U/mL Choline Oxidase Stock Solution:
1 tube of choline oxide in a kit was dissolved in 1× reaction buffer. The aliquots were frozen at −20° C.
Preparation of 200 U/mL Horseradish Peroxidase (HRP) Stock Solution:
1 tube of HRP in a kit was dissolved in 1 mL of 1× reaction buffer. The aliquots were frozen at −20° C.
Preparation of 20 mM Amplex® Red Reagent (for Detection) Stock Solution
Amplex Red reagent and DMSO were equilibrated at room temperature. 1 tube of Amplex Red reagent in a kit was dissolved in 200 μL of DMSO.
a) 2×ATX ([…]), 2×HRP ([…]), 2× choline oxidase (0.2 U/mL) were added to 1× reaction buffer.
b) 20 μL of the reaction mixture was added to the plate (PE, 6007270) (refer to step a).
c) 40 nL of diluent was added to the plate using Echo (refer to “Preparation”).
d) 2×LPC (16:0) (60 mM) and 2× Amplex® Red ([…]) were prepared using 1× reaction buffer.
e) 20 μL of the mixture was added to the plate (refer to step d).
f) The plate was shaken for 30 s and allowed to stand at room temperature for 30 min.
g) The plate was examined using Envision, and the procedure was as follows: Excitation at 530 nm; and Emission at 590 nm.
Formula for Calculating % Inhibition (Percent Inhibition Rate) as Follows:
FLU: Fluorescence (fluorescence reading)
FLUpositive: Average fluorescence value in positive control wells (10 μM HA130) in the plate.
FLUvehicle: Average fluorescence value in negative control wells (0.1% DMSO) in the plate.
Calculation of IC50 and Dose-Response Curve:
IC50 of the compounds was calculated via a non-linear regression line (dose-variable slope) fitted using % inhibition and log of compound concentration. The software used was Graphpad 5.0. Y=Bottom+(Top−Bottom)/(1+10^((Log IC50−X)×Hill Slope))
X: log of inhibitor concentration

The target in the next data set is CYP3A4 (Homo sapiens (Human), UniProt P08684). Nature of the data set: Time-dependent inhibition of CYP3A4 (TDI assay, human liver microsomes). It is filed as in vitro ADME. The following applies: for CYP3A4 TDI % @ 10 μM: human liver microsomes, Midazolam substrate, 30 min with NADPH vs 0 min; for time-dependent inhibition on CYP3A4 (conclusion): conclusion drawn from Table 3, 10 μM. On the procedure: Effect Example 3. Time-Dependent Inhibition of CYP3A4
1. Preheating potassium phosphate buffer (K-buffer), pH 7.4: 100 mM potassium phosphate buffer (K-buffer) was prepared by mixing 9.5 mL of solution A with 40.5 mL of solution B, diluting to 500 mL with ultrapure water, and then adjusting to pH 7.4 with KOH or H3PO4, wherein the solution A (1M potassium dihydrogenphosphate) was prepared by dissolving 136.5 g of potassium dihydrogenphosphate in […] of ultrapure water.
2. Preparation of human liver microsome suspension (1.3 mg/mL, 1.3×, stock: 20 mg/mL): 100 μL of human liver microsome suspension (20 mg/mL) was added into […] of K-buffer.
3. Preparation of NADPH solution (4.167 mg/mL, 5 mM): 8.3 mg of NADPH was added into 2 mL of buffer.
4. Preparation of substrate solution (1.5× final): 1.5 μL of 10 mM Midazolam was added to 998.5 μL of K-buffer to yield the substrate mixture.
5. Preparation of 100× test compound, reference and blank control solutions: 3 μL of 10 mM stock solution of test compound was added to 27 μL of ACN; 3 μL of positive control stock solution was added to 27 μL of ACN; and 3 μL of DMSO was added to 27 μL of ACN to serve as blank control.
6. Primary preheating system: An NADPH-free system for 0 min incubation: 78 μL of 1.3× human liver microsome solution (step 2) was mixed with 1 μL of the 100× stock solutions of positive control, test compound, or blank control (step 5); A system containing NADPH for 30 min incubation: 78 μL of 1.3× human liver microsome solution (step 2) was mixed with 1 μL of the 100× stock solutions of positive control, test compound, or blank control (step 5).
7. Secondary preheating system: 150 μL of the substrate solution prepared in step 4 was added into a deep well plate together with the NADPH solution from step 3
8. The samples were preheated for 10 min in a 37° C. water bath.
9. Reaction procedure: (1) reaction for 0 min: 21 μL of K-buffer was added to the primary preheating system and mixed well without incubation; 20 μL of the mixture was immediately transferred into the plate of the secondary preheating system; after mixing, the secondary system was incubated in a 37° C. water bath for 15 min, and 60 μL of the reaction mixture was added into 120 μL of acetonitrile containing internal standard to terminate the reaction; and (2) reaction for 30 min: 21 μL of NADPH was added into the primary preheating system for a 30-min incubation after mixing; 20 μL of the mixture was added into the secondary preheating system prior to mixing; the mixture was incubated in a 37° C. water bath for 15 min, and 60 μL of the reaction mixture was added into 120 μL of acetonitrile containing internal standard to terminate the reaction.
10. After termination, the samples were shaken on a shaker at 600 rpm for 10 min and centrifuged at 5594 g for 15 min prior to LC-MS/MS analysis.
Background: Microsomes from liver hold many membrane-bound enzymes, among them those of drug oxidation.

Structures are written as SMILES.

Sequence of CYP3A4 (P08684 whole entry): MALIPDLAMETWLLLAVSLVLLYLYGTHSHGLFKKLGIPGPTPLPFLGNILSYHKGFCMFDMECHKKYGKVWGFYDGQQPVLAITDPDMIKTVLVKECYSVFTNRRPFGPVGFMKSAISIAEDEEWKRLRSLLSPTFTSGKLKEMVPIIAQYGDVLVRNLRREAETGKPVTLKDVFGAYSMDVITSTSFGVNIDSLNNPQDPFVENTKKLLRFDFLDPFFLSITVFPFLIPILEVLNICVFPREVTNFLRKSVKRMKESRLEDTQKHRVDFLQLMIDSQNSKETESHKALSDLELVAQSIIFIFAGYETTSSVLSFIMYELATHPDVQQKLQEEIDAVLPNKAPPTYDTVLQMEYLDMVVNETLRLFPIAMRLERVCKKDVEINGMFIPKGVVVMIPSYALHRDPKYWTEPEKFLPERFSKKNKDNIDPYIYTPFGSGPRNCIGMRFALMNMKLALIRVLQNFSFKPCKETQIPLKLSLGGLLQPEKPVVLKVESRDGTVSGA

For the compound `CC(C)n1nc2c(F)cc(N3CCN(CC(=O)N4CC(O)C4)CC3)cc2c1N(C)c1nc(-c2ccc(F)cc2)c(C#N)s1` [Compound S-0125, 2-((7-fluoro-5-(4-(2-(3-hydroxyazetidin-1-yl)-2-oxoethyl)piperazin-1-yl)-2-isopropyl-2H-indazol-3-yl)(methyl)amino)-4-(4-fluorophenyl)thiazole-5-carbonitrile], at Autotaxin (ATX), the IC50 (in general, the concentration at which inhibition is half-maximal) stood at 178 nM.

`CCn1nc2cnc(N3CCN(CC(=O)N4CC(O)C4)CC3)cc2c1N(C)c1nc(-c2ccc(F)cc2)c(C#N)s1` [Compound S-0044, 2-((2-ethyl-5-(4-(2-(3-hydroxyazetidin-1-yl)-2-oxoethyl)piperazin-1-yl)-2H-pyrazolo[3,4-c]pyridin-3-yl)(methyl)amino)-4-(4-fluorophenyl) thiazole-5-carbonitrile]: at CYP3A4, the “CYP3A4 TDI % @ 10 μM” value worked out at 15.3% and the “time-dependent inhibition on CYP3A4 (conclusion)” value (shortened to “time-dependent inhibition”) was “no time-dependent inhibition on CYP3A4”.

With `O=C1S/C(=C\c2ccc(OCc3cccc(B(O)O)c3)cc2)C(=O)N1Cc1ccc(F)cc1` [HA130, reference compound], on Autotaxin (ATX), the IC50 stood at 24 nM.

On to `CCc1nn2ccc(N3CCN(CC(=O)N4CC(O)C4)C(=O)C3)nc2c1N(C)c1nc(-c2ccc(F)cc2)c(C#N)s1` [Compound S-0104CP, 2-((2-ethyl-5-(4-(2-(3-hydroxyazetidin-1-yl)-2-oxoethyl)-3-oxopiperazin-1-yl)pyrazolo[1,5-a]pyrimidin-3-yl)(methyl)amino)-4-(4-fluorophenyl)thiazole-5-carbonitrile], for which it took 256 nM to reach half-maximal inhibition on Autotaxin (ATX) (IC50).

For the compound `CCc1nn2ccc(N3CCN(CC(=O)N4CC(C)(O)C4)CC3)nc2c1N(C)c1nc(-c2ccc(F)cc2)c(C#N)s1` [Compound S-0120, 2-((2-ethyl-5-(4-(2-(3-hydroxy-3-methylazetidin-1-yl)-2-oxoethyl)piperazin-1-yl)pyrazolo[1,5-a]pyrimidin-3-yl)(methyl)amino)-4-(4-fluorophenyl)thiazole-5-carbonitrile], on Autotaxin (ATX), the midpoint of inhibition, the IC50, lay at 41 nM.

Compound `CCc1nn2c(C)cc(N3CCN(CC(=O)N4CC(O)C4)C[C@@H]3C)nc2c1N(C)c1nc(-c2ccc(F)cc2)c(C#N)s1` [Compound S-0071, (S)-2-((2-ethyl-5-(4-(2-(3-hydroxyazetidin-1-yl)-2-oxoethyl)-2-methylpiperazin-1-yl)-7-methylpyrazolo[1,5-a]pyrimidin-3-yl)(methyl)amino)-4-(4-fluorophenyl)thiazole-5-carbonitrile] returned an IC50 against Autotaxin (ATX) of 46 nM. This IC50 and that of the compound before are within 1.5-fold of each other.

As for `CCc1nn2c(C)cc(N3CCN(CC(=O)N4CC(O)C4)[C@H](C)C3)nc2c1N(C)c1nc(-c2ccc(F)cc2)c(C#N)s1` [Compound S-0074, (R)-2-((2-ethyl-5-(4-(2-(3-hydroxyazetidin-1-yl)-2-oxoethyl)-3-methylpiperazin-1-yl)-7-methylpyrazolo[1,5-a]pyrimidin-3-yl)(methyl)amino)-4-(4-fluorophenyl)thiazole-5-carbonitrile], 207 nM corresponded to half-maximal inhibition against Autotaxin (ATX) (IC50). This IC50 lies about 4.5-fold higher than the previous one.

`CCc1nn2ccc(N3CCN(CC(=O)N4CC(O)C4)CC3)cc2c1N(C)c1nc(-c2ccc(F)cc2)c(C#N)s1` [Compound S-0040, 2-((2-ethyl-5-(4-(2-(3-hydroxyazetidin-1-yl)-2-oxoethyl)piperazin-1-yl)pyrazolo[1,5-a]pyridin-3-yl)(methyl)amino)-4-(4-fluorophenyl)thiazole-5-carbonitrile] registered an IC50 at Autotaxin (ATX) of 767 nM.

For `CCn1nc2ncc(N3CCN(CC(=O)N4CC(O)C4)CC3)cc2c1N(C)c1nc(-c2ccc(F)cc2)c(C#N)s1` [Compound S-0043, 2-((2-ethyl-5-(4-(2-(3-hydroxyazetidin-1-yl)-2-oxoethyl)piperazin-1-yl)-2H-pyrazolo[3,4-b]pyridin-3-yl)(methyl)amino)-4-(4-fluorophenyl)thiazole-5-carbonitrile], at CYP3A4, the “CYP3A4 TDI % @ 10 μM” value worked out at 12.38% and the “time-dependent inhibition” value is listed as “no time-dependent inhibition on CYP3A4”.

`CCc1nn2c(C)cc(N3CCN(CC(=O)N4CC(O)C4)[C@@H](C)C3)nc2c1N(C)c1nc(-c2ccc(F)cc2)c(C#N)s1` [Compound S-0075, (S)-2-((2-ethyl-5-(4-(2-(3-hydroxyazetidin-1-yl)-2-oxoethyl)-3-methylpiperazin-1-yl)-7-methylpyrazolo[1,5-a]pyrimidin-3-yl)(methyl)amino)-4-(4-fluorophenyl)thiazole-5-carbonitrile]: at Autotaxin (ATX), it took 88 nM to reach half-maximal inhibition (IC50).

As to `CCc1nn2c(C)cc(N3CCN(CC(=O)N4CC(O)C4)CC3)nc2c1N(CC)c1nc(-c2ccc(F)cc2)c(C#N)s1` [Compound S-0069, 2-(ethyl(2-ethyl-5-(4-(2-(3-hydroxyazetidin-1-yl)-2-oxoethyl)piperazine-1-yl)-7-methylpyrazolo[1,5-a]pyrimidin-3-yl)amino)-4-(4-fluorophenyl) thiazole-5-carbonitrile], on Autotaxin (ATX), half-maximal inhibition (IC50) was put at 43 nM.

Regarding `CCc1nn2c(C)cc(N3CCN(CC(=O)N4CC(O)C4)C[C@H]3C)nc2c1N(C)c1nc(-c2ccc(F)cc2)c(C#N)s1` [Compound S-0070, (R)-2-((2-ethyl-5-(4-(2-(3-hydroxyazetidin-1-yl)-2-oxoethyl)-2-methylpiperazine-1-yl)-7-methylpyrazolo[1,5-a]pyrimidin-3-yl)(methyl)amino)-4-(4-fluorophenyl)thiazole-5-carbonitrile], the IC50 against Autotaxin (ATX) worked out at 36 nM.

As for `CCc1nn2ccc(N3CCN(CC(=O)N4CC(O)C4)CC3)nc2c1N(C)c1nc(-c2ccc(F)cc2)c(C#N)s1` [Compound S-0041, 2-((2-ethyl-5-(4-(2-(3-hydroxyazetidin-1-yl)-2-oxoethyl)piperazin-1-yl)pyrazolo[1,5-a]pyrimidin-3-yl)(methyl)amino)-4-(4-fluorophenyl)thiazole-5-carbonitrile], at CYP3A4, the “CYP3A4 TDI % @ 10 μM” value is reported as −4.00% and the “time-dependent inhibition” value was “no time-dependent inhibition on CYP3A4”.

In turn, `CCN(c1nc(-c2ccc(F)c(F)c2)c(C#N)s1)c1c2cc(N3CCN(CC(=O)N4CC(O)C4)CC3)cc(F)c2nn1CC` [Compound S-0123, 4-(3,4-difluorophenyl)-2-(ethyl(2-ethyl-7-fluoro-5-(4-(2-(3-hydroxyazetidin-1-yl)-2-oxoethyl)piperazin-1-yl)-2H-indazol-3-yl)amino)thiazole-5-carbonitrile] returned an IC50 at Autotaxin (ATX) of 32 nM.
